For nine molecules, TGI results are on record in PubChem BioAssay (NCI).

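Each compound was tested at five concentrations against cells in 96-well plates for 48 hours. At the TGI there is no net growth.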

Test systems include LOX IMVI melanoma; K-562 leukemia; HL-60(TB) leukemia; MOLT-4 leukemia; SN12C renal; NCI/ADR-RES ovarian; HCT-15 colon; SK-MEL-2 melanoma; SF-295 CNS; UO-31 renal; U251 CNS; SK-MEL-5 melanoma; SK-OV-3 ovarian; RPMI-8226 leukemia; T-47D breast; NCI-H226 lung; CCRF-CEM leukemia; RXF 393 renal; NCI-H522 lung.
Common to all, as to test: NCI anticancer screen, dose series, 48 h

In the case of `COc1cc(/C=C2\N=C(c3ccccc3)N(/N=C/c3cc4cc(C)ccc4nc3Cl)C2=O)cc(OC)c1OC`, the TGI with LOX IMVI melanoma was above 100 µM; with K-562 leukemia it was above 100 µM; with HL-60(TB) leukemia, 28.2 µM; in the test on MOLT-4 leukemia, 51 µM; in the test on SN12C renal, above 100 µM; in the test on NCI/ADR-RES ovarian, above 100 µM. Moreover, the TGI in the test on HCT-15 colon is above 100 µM; in the test with SK-MEL-2 melanoma it was 48 µM; in the test with SF-295 CNS it was above 100 µM; with UO-31 renal, above 100 µM; in the test on U251 CNS it was 51 µM; in the test with SK-MEL-5 melanoma, above 100 µM. Moreover, the TGI was above 100 µM in the test on SK-OV-3 ovarian, 42.8 µM in the test on RPMI-8226 leukemia and 63.3 µM in the test on T-47D breast.

For the molecule `CN(C)CCN1C(=O)c2ccccc2C1(O)c1ccc(Cl)cc1` (configuration not stated), the TGI with K-562 leukemia, in the test with HL-60(TB) leukemia, with MOLT-4 leukemia, with SN12C renal, in the test on NCI/ADR-RES ovarian and with HCT-15 colon was above 100 µM in each case. In addition, the TGI in the test with SF-295 CNS is above 100 µM; in the test with UO-31 renal, above 100 µM; in the test with NCI-H226 lung, above 100 µM; in the test with CCRF-CEM leukemia, above 100 µM; in the test with U251 CNS, above 100 µM; in the test on RXF 393 renal it was 77.5 µM. For the same molecule, the TGI is 67.2 µM in the test on SK-MEL-5 melanoma, above 100 µM in the test on SK-OV-3 ovarian, above 100 µM with RPMI-8226 leukemia and above 100 µM in the test on T-47D breast.

Turning to `Cc1n[nH]c(=O)n1/N=C/c1cccnc1`, the TGI with LOX IMVI melanoma, with K-562 leukemia, with HL-60(TB) leukemia, with MOLT-4 leukemia, with SN12C renal and in the test with NCI/ADR-RES ovarian was above 100 µM throughout. Also, the TGI with NCI-H522 lung, with HCT-15 colon, in the test on SK-MEL-2 melanoma, in the test with SF-295 CNS, in the test with UO-31 renal and with NCI-H226 lung was above 100 µM each time. Also, the TGI in the test with CCRF-CEM leukemia, in the test with U251 CNS, with SK-MEL-5 melanoma, in the test on SK-OV-3 ovarian, with RPMI-8226 leukemia and with T-47D breast was above 100 µM each time.

As to `O=c1[nH]c(=O)n(C2CC(O)C(CO)O2)c2nc3ccc4ccccc4c3nc12` (configuration not stated), the TGI in the test with LOX IMVI melanoma is above 100 µM; with K-562 leukemia, above 100 µM; with MOLT-4 leukemia, 54.3 µM; in the test with SN12C renal, above 100 µM; in the test on NCI/ADR-RES ovarian, above 100 µM; in the test with NCI-H522 lung, above 100 µM. Moreover, the TGI in the test on HCT-15 colon, in the test on SK-MEL-2 melanoma, in the test on SF-295 CNS, with UO-31 renal, in the test on NCI-H226 lung and in the test with CCRF-CEM leukemia was above 100 µM in each case. Besides, the TGI with U251 CNS is above 100 µM; in the test with RXF 393 renal it was above 100 µM; in the test on SK-MEL-5 melanoma, above 100 µM; with SK-OV-3 ovarian, above 100 µM; in the test on RPMI-8226 leukemia, 76 µM; with T-47D breast, above 100 µM.

For the molecule `CCOC(=O)c1c(NC(=O)c2ccc(OC)cc2)sc2c1CCCC2`, the TGI in the test on K-562 leukemia, in the test with HL-60(TB) leukemia, in the test with MOLT-4 leukemia, in the test on SN12C renal, with NCI/ADR-RES ovarian and in the test on SK-MEL-2 melanoma was above 100 µM each time. Further, the TGI in the test on SF-295 CNS, in the test on UO-31 renal, with NCI-H226 lung, with CCRF-CEM leukemia, in the test on U251 CNS and in the test on RXF 393 renal was above 100 µM throughout. Also, the TGI in the test with SK-MEL-5 melanoma, in the test on RPMI-8226 leukemia and in the test on T-47D breast was above 100 µM in each case.

Take `O=c1c2c3c(sc2nc2n1N=CN(c1ccc(Cl)cc1)C2)CCCC3`: the TGI with LOX IMVI melanoma, in the test with K-562 leukemia, in the test on MOLT-4 leukemia, with SN12C renal, in the test on NCI/ADR-RES ovarian and in the test on NCI-H522 lung was above 100 µM in each case. Besides, the TGI with HCT-15 colon, in the test on SK-MEL-2 melanoma, in the test with SF-295 CNS, in the test with UO-31 renal, in the test on NCI-H226 lung and in the test on CCRF-CEM leukemia was above 100 µM each time. In addition, the TGI in the test with U251 CNS, with RXF 393 renal, with SK-MEL-5 melanoma, with SK-OV-3 ovarian, in the test with RPMI-8226 leukemia and in the test on T-47D breast was above 100 µM throughout.

Consider `CC(C)N(c1cc2c(cc1F)c(=O)c(C(=O)O)cn2-c1ccc(N2CCN(C)CC2)cn1)C(C)C`, for which the TGI in the test with LOX IMVI melanoma, in the test on K-562 leukemia, in the test with HL-60(TB) leukemia, with MOLT-4 leukemia, in the test with SN12C renal and with NCI/ADR-RES ovarian was above 100 µM in each case. In addition, the TGI in the test with HCT-15 colon, in the test with SF-295 CNS, in the test with UO-31 renal, in the test with NCI-H226 lung, in the test with CCRF-CEM leukemia and in the test on U251 CNS was above 100 µM in each case. Besides, the TGI in the test on RXF 393 renal, in the test on SK-OV-3 ovarian, with RPMI-8226 leukemia and in the test on T-47D breast was above 100 µM each time.

`C=CC(c1ccccc1)C1(O)c2cccc(O)c2C(=O)c2c(O)cccc21` (configuration not stated): the TGI in the test with LOX IMVI melanoma was found to be 29.9 µM; in the test on K-562 leukemia, 37.7 µM; in the test on MOLT-4 leukemia it was 46.8 µM; in the test on NCI/ADR-RES ovarian, 31.2 µM; in the test with NCI-H522 lung, 30.1 µM; in the test on HCT-15 colon it was 29.4 µM. The TGI was found to be 26.4 µM in the test on SK-MEL-2 melanoma; 40.4 µM in the test on SF-295 CNS; 41.6 µM with UO-31 renal; 39.8 µM in the test on NCI-H226 lung; 24.5 µM in the test on U251 CNS; 29.1 µM in the test with RXF 393 renal. Besides, the TGI came to 32 µM with SK-MEL-5 melanoma, 54.8 µM with RPMI-8226 leukemia and 42.3 µM with T-47D breast.

On to `COc1ccc(C(CC(=O)c2ccccc2)C(=O)c2ccc3c(c2)OCO3)cc1` (configuration not stated), for which the TGI in the test on K-562 leukemia, with HL-60(TB) leukemia, with MOLT-4 leukemia, in the test with SN12C renal, in the test on NCI/ADR-RES ovarian and in the test on HCT-15 colon was above 100 µM in each case. The TGI in the test with SK-MEL-2 melanoma, in the test on SF-295 CNS, in the test with UO-31 renal, in the test on NCI-H226 lung, in the test with CCRF-CEM leukemia and with U251 CNS was above 100 µM each time. For the same molecule, the TGI in the test with SK-MEL-5 melanoma, with SK-OV-3 ovarian, with RPMI-8226 leukemia and with T-47D breast was above 100 µM each time.
